# From patent US9012446B2, “Amino-oxazines and amino-dihydrothiazine compounds as beta-secretase modulators and methods of use” (Amgen Inc., priority 2010, dated 2015)
# Read-outs that look alike come from different tables or passages of the source.
# Experiments:
# [1] = test system: Aβ40; assay: In vitro BACE cell-based assay (Aβ40 sandwich ELISA, cells stably expressing APP)
# Description: In Vitro BACE Cell-Based Assay […] Cells stably expressing Amyloid Precursor Protein (APP) were plated at a density of 40K cells/well in 96 well plates (Costar). The cells were cultivated for 24 hours at 37° C. and 5% CO2 in DMEM supplemented with 10% FBS. The test compounds were then added to cells in 10-point dose response concentrations with the starting concentration being either 100 μM or 10 μM. The compounds were diluted from stock solutions in DMSO and the final DMSO concentration of the test compounds on cells was 0.1%. […] The IC50 of the compound was calculated from the percent of control or percent inhibition of Aβ40 as a function of the concentration of the test compound. The sandwich ELISA to detect Aβ40 was performed in 96 well microtiter plates, which were pre-treated with goat anti-rabbit IgG (Pierce). […] The optimal concentration for the pAb40 antibody was 3 μg/ml in Superblock/TBS (Pierce) that was supplemented with 0.05% Tween 20 (Sigma). […] Cellular supernatants were incubated with the capture antibody for 3 h at 4° C., followed by 3 wash steps in TBS-tween (0.05%). The detecting antibody incubation was for 2 h at 4° C., again followed by the wash steps as described previously. The final readout of the ELISA is Time-Resolved Fluorescence (counts per minute) using Delfia reagents Streptavidin-Europium and Enhancement solutions (Perkin Elmer) and the Victor 2 multilabel counter (Perkin Elmer).
# [2] = target: BACE (Homo sapiens, UniProt P56817); assay: In vitro enzymatic BACE FRET assay; type: biochemical; details: average IC50, enzyme assay; read-out: BACE 1 FRET assay
# Sequence of BACE (P56817 46-501, species assumed): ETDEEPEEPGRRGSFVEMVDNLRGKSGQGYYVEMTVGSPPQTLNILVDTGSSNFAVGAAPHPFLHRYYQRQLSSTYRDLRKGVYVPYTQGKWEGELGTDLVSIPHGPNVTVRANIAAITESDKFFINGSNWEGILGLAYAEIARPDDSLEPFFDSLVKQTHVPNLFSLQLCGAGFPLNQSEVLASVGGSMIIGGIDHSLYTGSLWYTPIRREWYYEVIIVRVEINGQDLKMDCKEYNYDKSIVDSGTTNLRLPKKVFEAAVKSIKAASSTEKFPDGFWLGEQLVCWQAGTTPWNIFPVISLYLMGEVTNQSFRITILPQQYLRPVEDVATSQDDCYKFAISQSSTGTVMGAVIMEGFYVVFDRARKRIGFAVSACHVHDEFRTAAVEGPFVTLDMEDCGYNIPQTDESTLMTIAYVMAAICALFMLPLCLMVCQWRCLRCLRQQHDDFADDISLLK
# Description: In Vitro Enzymatic BACE FRET (Fluorescence Resonance Energy Transfer) Assay (Enzyme Assay Data in the Example Table I) The assay buffer used in this screen is 0.05 M acetate, pH 4.2, 10% DMSO final, 100 uM genapol (which is a nonionic detergent, below its Critical Micelle Concentration). The beta secretase enzyme (0.2 nM) is pre-incubated for one hour with inhibitors, typically in about 1 uL of DMSO according to a serial dilution, are added thereto. This assay is effectively started by the addition of FRET substrate (50 nM) and the combination is incubated for one hour. The FRET assay is terminated with by addition of Tris buffer, which raises the pH to neutrality, and the fluorescence is determined. The FRET substrate is a peptide with commercially available fluorophore and quencher, on opposite sides of the BACE cleavage site. Proteolytic cleavage of the FRET substrate releases quenching of fluorescence (excitation 488 nm and emission […]).
# [3] = Homo sapiens, HEK293, average IC50, read-out: HEK cell assay
# [4] = average IC50, read-out: HEK cell assay
# [5] = Homo sapiens, HEK293, average IC50, cell assay, HEK cells
smiles,measurement,setting,value
"NC1=N[C@@]2(CO[C@H]1C1CCCCC1)c1cc(-c3cccnc3F)ccc1Oc1cnc(Cl)cc12 (racemic) [Example 56A, (3′S,6′S)-3-chloro-6′-cyclohexyl-7-(2-fluoropyridin-3-yl)-2′,6′-dihydrospiro[chromeno[2,3-c]pyridine-5,3′-[1,4]oxazin]-5′-amine]",IC50,[1]; [3],138 nM
same,IC50,[2],30.7 nM
"NC1=N[C@]2(CO[C@H]1C1CCCCC1)c1cc(-c3cccnc3F)ccc1Oc1cnc(Cl)cc12 (racemic) [Example 56B, (3′R,6′S)-3-chloro-6′-cyclohexyl-7-(2-fluoropyridin-3-yl)-2′,6′-dihydrospiro[chromeno[2,3-c]pyridine-5,3′-[1,4]oxazin]-5′-amine]",IC50,[1]; [3],452 nM
same,IC50,[2],1280 nM
COc1cc(F)c2c(c1)C1(CCOC(N)=N1)c1cc(Br)ccc1O2 (racemic) [compound 20],IC50,[2],15400 nM
NC1=N[C@]2(CCO1)c1cc(-c3cccnc3F)ccc1Oc1c2cc(-c2ccnc(F)c2)nc1F (racemic) [compound 103],IC50,"[1]; average IC50, cell assay, HEK cells",6.9 nM
same,IC50,[2],2.2 nM
COc1cc(F)c2c(c1)[C@@]1(CCSC(N)=N1)c1cc(-c3cccnc3F)ccc1O2 (racemic) [compound 191],IC50,[1]; [4],374 nM
same,IC50,[2],87.3 nM
NC1=N[C@]2(CO[C@@H]1C1CCOCC1)c1cc(-c3cccnc3F)ccc1Oc1cnc(Cl)cc12 (racemic) [compound 207],IC50,[1]; [4],21.3 nM
same,IC50,[2],11.5 nM
"NC1=N[C@@]2(COC1)c1cc(Br)ccc1Oc1cnc(Cl)cc12 (single isomer, unassigned) [Example 9A]",IC50,[2],4150 nM
"NC1=N[C@]2(COC1)c1cc(Br)ccc1Oc1cnc(Cl)cc12 (single isomer, unassigned) [Example 9B]",IC50,[2],23100 nM
NC1=N[C@]2(COC1)c1cc(-c3cccnc3F)ccc1Oc1c(F)cc(N3CCOCC3)cc12 [35B],IC50,[1]; [5],86.2 nM
same,IC50,[2],211 nM
NC1=N[C@]2(COC1)c1cc(-c3cccnc3F)ccc1Oc1c(F)cc(-c3ccnc(F)c3)cc12 [36B],IC50,[1]; [5],628 nM
same,IC50,[2],140 nM
CC(C)(F)COc1cc(F)c2c(c1)[C@@]1(COCC(N)=N1)c1cc(-c3cccnc3F)ccc1O2 [37B],IC50,[1]; [5],64.1 nM
same,IC50,[2],110 nM
"NC1=N[C@@]2(COC1)c1cc(-c3cccnc3F)ccc1Oc1cnc(C3CCOCC3)cc12 [Example 34, (S)-7-(2-fluoropyridin-3-yl)-3-(tetrahydro-2H-pyran-4-yl)-2′,6′-dihydrospiro[chromeno[2,3-c]pyridine-5,3′-[1,4]oxazin]-5′-amine]",IC50,[1]; [5],0.9 nM
same,IC50,[2],0.7 nM
"NC1=N[C@@]2(COC1)c1cc(-c3cccnc3F)ccc1Oc1c(F)cc(N3CCOCC3)cc12 [Example 35A, (S)-4′-fluoro-7′-(2-fluoropyridin-3-yl)-2′-morpholino-2,6-dihydrospiro[[1,4]oxazine-3,9′-xanthen]-5-amine]",IC50,[1]; [5],1.9 nM
same,IC50,[2],0.5 nM
"NC1=N[C@@]2(COC1)c1cc(O)ccc1Oc1c(F)cc(-c3ccnc(F)c3)cc12 [Example 39, (S)-5-amino-4′-fluoro-2′-(2-fluoropyridin-4-yl)-2,6-dihydrospiro[[1,4]oxazine-3,9′-xanthen]-7′-ol]",IC50,[1]; [5],2590 nM
same,IC50,[2],368 nM
"NC1=N[C@@]2(COC1)c1cc(-c3cccnc3F)ccc1Oc1c(F)cc(C3CCOCC3)cc12 [Example 42, (S)-4′-fluoro-7′-(2-fluoropyridin-3-yl)-2′-(tetrahydro-2H-pyran-4-yl)-2,6-dihydrospiro[[1,4]oxazine-3,9′-xanthen]-5-amine]",IC50,[1]; [5],2.4 nM
same,IC50,[2],0.4 nM
"CC(C)(C)COc1cc2c(cn1)Oc1ccc(-c3cccnc3F)cc1[C@@]21COCC(NC=O)=N1 [Example 43, (S)—N-(7-(2-fluoropyridin-3-yl)-3-(neopentyloxy)-2′,6′-dihydrospiro[chromeno[2,3-c]pyridine-5,3′-[1,4]oxazine]-5′-yl)formamide]",IC50,[1]; [5],1.2 nM
same,IC50,[2],17.4 nM
"CC(C)(C)COc1cc2c(cn1)Oc1ccc(N3CCC(F)(F)CC3)cc1[C@@]21COCC(N)=N1 [Example 44, (S)-7-(4,4-difluoropiperidin-1-yl)-3-(neopentyloxy)-2′,6′-dihydrospiro[chromeno[2,3-c]pyridine-5,3′-[1,4]oxazin]-5′-amine]",IC50,[1]; [5],19.3 nM
same,IC50,[2],10.5 nM
"COc1cc(F)c2c(c1)[C@]1(COCC(N)=N1)c1cc(N3CCC(F)(F)CC3)ccc1O2 [Example 45, (S)-7′-(4,4-difluoropiperidin-1-yl)-4′-fluoro-2′-methoxy-2,6-dihydrospiro[[1,4]oxazine-3,9′-xanthen]-5-amine]",IC50,[1]; [5],420 nM
same,IC50,[2],158 nM
"CC1(COc2cc(F)c3c(c2)[C@]2(COCC(N)=N2)c2cc(N4CCC(F)(F)CC4)ccc2O3)COC1 [Example 46, (S)-7′-(4,4-difluoropiperidin-1-yl)-4′-fluoro-2′-((3-methyloxetan-3-yl)methoxy)-2,6-dihydrospiro[[1,4]oxazine-3,9′-xanthen]-5-amine]",IC50,[1]; [3],32.1 nM
same,IC50,[2],9.4 nM
"COc1cc(F)c2c(c1)[C@]1(COCC(N)=N1)c1cc(-c3cccnc3F)ccc1O2 [Example 48, (S)-4′-fluoro-7′-(2-fluoropyridin-3-yl)-2′-methoxy-2,6-dihydrospiro[[1,4]oxazine-3,9′-xanthen]-5-amine]",IC50,[1]; [5],15.6 nM
same,IC50,[2],1.5 nM
"NC1=N[C@@]2(COC1)c1cc(-c3cccnc3F)ccc1Oc1cnc(OC(F)F)cc12 [Example 49, (S)-3-(difluoromethoxy)-7-(2-fluoropyridin-3-yl)-2′,6′-dihydrospiro[chromeno[2,3-c]pyridine-5,3′-[1,4]oxazin]-5′-amine]",IC50,[1]; [3],11.5 nM
same,IC50,[2],6.7 nM
"COc1cc2c(cn1)Oc1ccc(-c3ccc(F)c(F)c3)cc1[C@@]21COCC(N)=N1 [Example 50, (S)-7-(3,4-difluorophenyl)-3-methoxy-2′,6′-dihydrospiro[chromeno[2,3-c]pyridine-5,3′-[1,4]oxazin]-5′-amine]",IC50,[1]; [3],106 nM
same,IC50,[2],30.9 nM
"CC(C)(C)C#Cc1cnc2c(c1)[C@]1(COCC(N)=N1)c1cc(-c3cccnc3)ccc1O2 [Example 52, (S)-3-(3,3-dimethylbut-1-ynyl)-7-(pyridin-3-yl)-2′,6′-dihydrospiro[chromeno[2,3-b]pyridine-5,3′-[1,4]oxazin]-5′-amine]",IC50,[1]; [3],0.3 nM
same,IC50,[2],0.4 nM
"CC(C)(C)COc1ccc2c(c1)[C@]1(COCC(N)=N1)c1cc(Br)ccc1O2 [Example 67a, (3R)-2′-bromo-7′-(2,2-dimethylpropoxy)-6H-spiro[1,4-oxazine-3,9′-xanthen]-5-amine]",IC50,[1]; [3],587 nM
NC1=NC2(COC1)c1cc(Br)ccc1Oc1cnc(Cl)cc12 (centres unmarked) [compound 9],IC50,[2],4130 nM
NC1=NC2(CCS1)c1cc(Br)ccc1Oc1ccc(I)cc12 (centres unmarked) [compound 13],IC50,[2],9960 nM
NC1=NC2(CCO1)c1cc(I)ccc1Oc1ncc(Br)cc12 (centres unmarked) [compound 25],IC50,[2],16000 nM
COc1ccc2c(c1)[C@]1(COCC(N)=N1)c1cc(Br)ccc1O2 [compound 134],IC50,[2],7110 nM
COc1ccc2c(c1)C1(CCSC(N)=N1)c1cc(Br)ccc1O2 (centres unmarked) [compound 136],IC50,[2],23700 nM
NC1=N[C@@]2(CCO1)c1cc(-c3cccnc3F)ccc1Oc1cnc(-c3ccccc3)cc12 [compound 138],IC50,[2],4.1 nM
COc1cc(F)c2c(c1)[C@@]1(CCOC(N)=N1)c1cc(-c3cccnc3F)ccc1O2 [compound 174],IC50,[2],4220 nM
COc1cc(F)c2c(c1)[C@@]1(CCSC(N)=N1)c1cc(-c3cccnc3F)ccc1O2 [compound 186],IC50,[2],9590 nM
NC1=N[C@@]2(CO[C@@H]1C(F)(F)F)c1cc(Br)ccc1Oc1cnc(Cl)cc12 [compound 205],IC50,[2],20000 nM
NC1=N[C@@]2(CCO1)c1cc(-c3cccnc3F)ccc1Oc1c2cc(-c2ccccc2)nc1F [compound 230],IC50,[2],2 nM
NC1=N[C@]2(CCO1)c1cc(-c3cccnc3F)ccc1Oc1c2cc(-c2ccccc2)nc1F [compound 235],IC50,[2],176 nM
CC1COC(N)=N[C@@]12c1cc(-c3cccnc3F)ccc1Oc1cnc(C3=CCCOC3)cc12 (some centres unmarked) [compound 261],IC50,[2],890 nM
C[C@@H]1COC(N)=N[C@]12c1cc(-c3cccnc3F)ccc1Oc1cnc(C3=CCCOC3)cc12 [compound 262],IC50,[2],4.1 nM
C[C@H]1COC(N)=N[C@@]12c1cc(-c3cccnc3F)ccc1Oc1cnc(C3=CCCOC3)cc12 [compound 263],IC50,[2],449 nM
CC1COC(N)=N[C@]12c1cc(-c3cccnc3F)ccc1Oc1cnc(C3=CCCOC3)cc12 (some centres unmarked) [compound 264],IC50,[2],3.7 nM
